In patent US20040241244A1, “Neuronal growth enhancement by prostaglandin compositions and methods” (NexMed (Holdings) Inc., priority 2003, published 2004):
“And” between values parts separate entries of the source, which are not always exact repeats. Equal entries are not always repeated. Where two headings read alike, the source gives them in different places.

Assays:
[1] = system: mouse neuroblastoma cells; details: cited from earlier work
[2] = system: cultured mouse dorsal root ganglion neurons; details: 20 micromolar, at 2 hours; cited from earlier work
[3] = biological target: EP2 receptor (Mus musculus, UniProt Q62053); details: read-out: affinity for the EP2 receptor; cited from earlier work
[4] = system: patients after nerve sparing RRP; details: three months of intracavernous injections three times a week; patients completing treatment; cited from earlier work
[5] = system: mouse neuroblastoma cells; assay: Neurite extension in neuroblastoma cells in culture (Prasad, 1972); assay type: cell-based; details: converted from micrograms/ml
Source text: “Neurite” is a broad term used to describe both axons and dendrites produced by a nerve cell; most commonly used to cover all cellular processes produced by neurons in culture (Kendrew, J., editor, The Encyclopedia of Molecular Biology, Blackwell Science Ltd., Oxford, 1994, page 709).

[6] = system: dorsocaudal regions of rat major pelvic ganglia (DCR-MPG); assay: Neurite outgrowth in primary cultures of dorsocaudal regions of rat major pelvic ganglia; assay type: cell-based, Sprague-Dawley rats
Method: The dorsocaudal regions of 24 major pelvic ganglia (DCR-MPG) were dissected from Sprague-Dawley rats. Each sample was placed on a reduced-growth factor Matrigel coated glasscover slide in a culture dish filled with serum-free medium. […] The ganglia cultures were incubated at 37° C. in a humidified atmosphere with 5% CO2. Digital photographs were taken of neurite growth after 96 hours.
Growth Factor Reduced Matrigel (Passaniti, A., et al., Lab. Invest. 1992 67:518-528) was purchased from Becton Dickinson (Mountain View, Calif.). Cell culture grade PGE1 was purchased from Sigma Chemical. (St. Louis, Mo.). RPIM-1640 and other cell culture reagents were purchased from GIBCO Invitrogen Corp. (Grand Island, N.Y.).
Male Sprague-Dawley rats, two-months old, were used in this study. All animal care, treatments, and procedures were approved by the institutional Committee on Animal Research. The rats were sacrificed by intraperitoneal injection of sodium pentobarbital (50 mg/kg) followed by bilateral thoracotomy and the removal of the dorsocaudal region of the major pelvic ganglia (DCR-MPG).
Each rat supplied a pair of DCR-MPG; one was used as control and the contralateral ganglion was treated with PGE1. The DCR-MPG isolated from Sprague-Dawley rats were cultured attached to Matrigel-coated glass coverslips. The coverslips were used as the supporting platform to facilitate samples processing for histological staining and examination. Coverslips were coated as follows. Growth Factor Reduced Matrigel (Becton Dickinson, Mountain View, Calif.) was diluted 3-fold in serum-free RPMI-1640 in a 35-mm culture dish on ice. The diluted Matrigel was then spread onto cold sterilized glass coverslips using a sterilized glass slide as spreader. The coated coverslips were placed in 35-mm culture dishes and incubated at 37° C. for 1 hr to allow the Matrigel to solidify. Each freshly dissected DCR-MPG was rinsed in phosphate-buffered saline (PBS), cut into equal thirds, placed on top of Matrigel coated coverslips and covered by 50 μl cold Growth Factor Reduced Matrigel which had been kept in liquid form. After a 5-min incubation at 37° C. to allow the Matrigel to polymerize, 3 ml of serum-free RPMI 1640 medium supplemented with 1×penicillin-streptomycin-fungizone (Cell Culture Facility, University of California, San Francisco) was added. […] The ganglia cultures were maintained at 37° C. in a humidified atmosphere with 5% CO2.
After 2 to 3 days of incubation, the ganglia and outgrowing neurites were stained for nicotinamide adenine dinucleotide phosphate (NADPH) diaphorase as an indication of nitric oxide synthase (NOS) expression. The culture medium was removed from each culture and replaced with a fixative solution of 2% formaldehyde, 0.002% picric acid in 0.1 M phosphate buffer, pH 8.0. After 20 min of fixation, the tissue was rinsed three times, 10 min each, with phosphate buffer, pH 8.0. The tissue was then incubated with 0.1 mM NADPH, 0.2 mM nitroblue tetrazolium, 0.2% Triton X-100 in buffer for approximately 30 min at room temperature with constant microscopic monitoring for color development. When a deep blue color was detected for NADPH-diaphorase positive nerves, the reaction was terminated by washing the tissues with buffer three times, 10 min each. The coverslips containing the ganglia were then mounted onto glass slides using buffered glycerin as mounting medium.
Neurites were photographed using a professional DCS-420 digital camera (Eastman Kodak, Rochester, N.Y.) connected to an Olympus microscope and an Apple Macintosh PowerMac computer. All samples were photographed and the images were stored for later analysis. The digital images were analyzed using Chemilmager 4000 software (Alpha Innotech Corporation, San Leandro, Calif.) to determine the maximum length of the outgrowing neurites fibers.
Statistical analysis was performed using computer software from Primer of Biostatistics, 3rd ed. (Glantz SA, McGraw-Hill, Inc. New York, 1992). […]

Sequence of EP2 receptor (Q62053 whole entry): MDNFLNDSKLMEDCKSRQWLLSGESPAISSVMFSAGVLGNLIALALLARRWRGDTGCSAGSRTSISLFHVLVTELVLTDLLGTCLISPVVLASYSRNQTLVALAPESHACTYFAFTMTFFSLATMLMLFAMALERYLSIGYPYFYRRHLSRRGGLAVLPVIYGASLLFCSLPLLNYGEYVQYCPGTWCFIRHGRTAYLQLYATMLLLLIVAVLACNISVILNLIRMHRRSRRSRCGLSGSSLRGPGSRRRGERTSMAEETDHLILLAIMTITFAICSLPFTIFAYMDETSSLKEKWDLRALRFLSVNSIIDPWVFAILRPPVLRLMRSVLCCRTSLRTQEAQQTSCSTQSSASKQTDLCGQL

**Q.** With CCCCC[C@H](O)/C=C/[C@H]1[C@H](O)CC(=O)[C@@H]1C/C=C\CCCC(=O)O [PGE2, Prostaglandin E2] as the compound, how does the “optimum concentration for neurite extension” value (from here on “optimum concentration”) [1] read?
**A.** Its value is “same optimum concentration”.

**Q.** What about the neurite extension [2] of the same compound?
**A.** Its neurite extension is “significantly different from control”.

**Q.** What about the Kd [3] of the same compound?
**A.** The Kd was roughly 0.01 µM.

**Q.** For Prostaglandin E1 [PGE1], which “patients reporting recovery of spontaneous erections sufficient for intercourse” value [4] is on record?
**A.** The value was 8 of the 12.

**Q.** And the “optimum concentration” value [5]?
**A.** Its value is “about 30 micromolar”.

**Q.** What about the “optimum concentration” value [1] of the same compound?
**A.** The value was “about 10 micrograms/ml”.

**Q.** What about the “optimum time of exposure” value [1] of the same compound?
**A.** The value was 3 to 5 days.

**Q.** What about the “Neurite Growth (Length of longest neurite), Mean” value ([6]; 1 μM PGE1, 96 hours culture) of the same compound?
**A.** The value was 168.00 μm.

**Q.** And the “Neurite Growth (Length of longest neurite), Mean” value ([6]; 10 μM PGE1, 96 hours culture)?
**A.** Its value is 229.33±10.7 μm and 229.33 μm.

**Q.** What about the “Neurite Growth (Length of longest neurite), Mean” value ([6]; 20 μM PGE1, 96 hours culture) of the same compound?
**A.** Its value is 244.00 μm.

**Q.** And the fiber length induced ([6]; 30 μM PGE1)?
**A.** Its fiber length induced is 250 ± 38.1 µm.

**Q.** And the “peak neurite growth (mean ± standard deviation)” value ([6]; 30 μM PGE1)?
**A.** Its value is 250±63 micrometers.

**Q.** And the “Neurite Growth (Length of longest neurite), Mean” value ([6]; 30 μM PGE1, 96 hours culture)?
**A.** Its value is 250.29 μm.

**Q.** What about the “Neurite Growth (Length of longest neurite), Mean” value ([6]; 60 μM PGE1, 96 hours culture) of the same compound?
**A.** Its value is 138.00 μm.

**Q.** And the “maximum neurite extension at high doses” value ([6]; 60 μM, 100 μM)?
**A.** The value was “smaller maximum neurite extension”.

**Q.** What about the “Neurite Growth (Length of longest neurite), Mean” value ([6]; 100 μM PGE1, 96 hours culture) of the same compound?
**A.** The value was 112.00 μm.

**Q.** And the “effect on neurite outgrowth of NADPH positive cells” value ([6]; primary cultures, 1-100 μM)?
**A.** The value was “enhance neurite outgrowth”.

**Q.** And the “PGE1 concentration at which the maximum effect on neurite outgrowth was observed” value ([6]; tested at 1, 10, 20, 30, 60 or 100 μM)?
**A.** The value was 30 µM.
